Laboratory results from article PMC5773487, “Harnessing insulin- and leptin-induced oxidation of PTP1B for therapeutic development” (Nature Communications, 2018).
“Also recorded” adds a separate entry of the source.

T1: PTP1B-OX (Homo sapiens, UniProt P18031)
T1 construct: Purified PTP1B (1–321) (100 nM) was mixed with increasing concentrations of H2O2; 6xHis (C); made in house; host or cells: E. coli BL21 (DE3)-RIL
T1 sequence (P18031 1-321): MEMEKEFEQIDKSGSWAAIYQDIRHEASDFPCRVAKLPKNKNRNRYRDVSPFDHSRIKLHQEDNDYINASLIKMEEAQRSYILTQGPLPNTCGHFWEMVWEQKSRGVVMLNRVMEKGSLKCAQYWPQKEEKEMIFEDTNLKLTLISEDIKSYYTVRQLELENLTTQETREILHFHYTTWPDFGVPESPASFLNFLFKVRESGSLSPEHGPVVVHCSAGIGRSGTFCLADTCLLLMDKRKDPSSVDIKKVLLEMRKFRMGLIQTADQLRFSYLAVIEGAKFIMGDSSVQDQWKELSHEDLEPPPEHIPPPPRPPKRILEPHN

B1: scFv45: recombinant conformation-sensor single-chain variable fragment antibody recognizing oxidized PTP1B (antibody, V domains shown)
VH: TVTLDESGGGLQAPGGALSLVCKASGFTFSSYDMGWIRQAPGKGLEYVAGITDNGRYASYGSAVDGRATISRDNGQSSVRLQLNNLRAEDTGTYYCARDDGSGWTGNSIDAWGHGTEVIVSE
VL: ALTQPSSVSANPGGTVKITCSGSSSAYGYGWYQQKSPGSAPVTVIYNNNKRPSNIPSRFSGSKSGSTGTLTITGVQAEDEAVYFCGSEDSSTDAIFGAGTTLTVL

Legend:
PTP1B-OX = biological target: T1, PTP1B-OX; assay: reduction and reactivation of reversibly oxidized PTP1B by TCEP, DiFMUP substrate; assay type: biochemical; settings: for inhibition of reduction and reactivation (stabilization) of PTP1B-OX: in words
Protocol: Therefore, our approach has been to adapt this assay, which we used to screen for conformation-sensor scFvs[17], now to screen for small molecules that act through a similar mechanism. Our primary screening assay tested the ability of small molecule inhibitors to antagonize the reduction and reactivation of the oxidized conformation of PTP1B, similar to that of scFv45 (Fig. 4a).
Purified PTP1B (1–321) (100 nM) was mixed with increasing concentrations of H2O2 (0.05–100 mM) in phosphatase assay buffer (50 mM HEPES, pH 7.0, 100 mM NaCl, 0.1% BSA) at room temperature for 5 min. From this reaction mixture PTP1B (10 nM) was used to monitor phosphatase activity using DiFMUP as the substrate, with or without 5 mM TCEP. Activity of each sample was compared to that of the untreated PTP1B in the presence of 5 mM TCEP.
To screen the LOPAC library against PTP1B-OX, 0.5 μl of 1 mM compound in 100% DMSO was added to 384-well plates, resulting in a final compound concentration of 10 μM for the primary screen. Recombinant PTP1B (100 nM) was reversibly oxidized and inactivated with H2O2 (4 mM). The phosphatase activity was restored by a quick buffer exchange and addition of reducing agent (TCEP). PTP1B-OX was incubated with LOPAC compounds (10 μM) in the assay buffer (50 mM HEPES pH 7.0, 100 mM NaCl, 0.005% Tween, 2 mM EDTA) and the effect of individual compound on stabilizing the reversibly oxidized conformation was assessed by the phosphatase assay under reducing conditions using DiFMUP as substrate. scFv45 was used as positive control.

[1] = test system: leptin signaling in hepatic stellate cells; assay: leptin signaling in hepatic stellate cells (immunoblot); assay type: cell-based, human; settings: for effect on JAK2 phosphorylation in presence of apocynin: NOX inhibitor apocynin; for leptin-induced tyrosine phosphorylation of JAK2: chelerythrine 0–5 μM or ectopic scFv45
Protocol: Human hepatic stellate cells (HSteCs; ScienCell research laboratories, CA) were cultured according to manufacturer’s instructions. Cells were seeded on poly-L-lysine coated dishes and maintained in Stellate Cell Medium (SteCM, Cat. #5301). When cells reached 70% confluency they were split for various experiments. To study leptin signaling, HSCs were incubated in serum-free DMEM for 24 h and then stimulated with varying concentration of leptin (0, 10, 25, 50, 100, and 200 ng ml^−1) for 15 min. To study the effect of chelerythrine and protopine, serum starved cells were incubated with the compounds at varying concentrations (0–5 µM) for 1 h prior to leptin stimulation. In some groups, cells were pre-incubated (60 min) with the NADPH oxidase inhibitor apocynin (100 nM), before stimulation with leptin.

[2] = test system: insulin signaling in liver, leptin signaling in hypothalamus; assay: insulin and leptin signaling in liver and hypothalamus lysates of treated mice; assay type: in vivo; settings: HFD mice
Protocol: Fig. 9 Chelerythrine improved metabolism and promoted insulin and leptin signaling in mice. a Body weight of male mice (C57bl6/J) fed high fat diet and treated with chelerythrine (3 mg kg^−1), protopine (3 mg kg^−1) or saline was monitored from the beginning of the treatment (10 weeks of age) until the study was terminated (14 weeks of age). Data represent the mean ± s.e.m. (n = 10 in each group). b HFD fed 14-week-old male mice treated with saline or chelerythrine were administered D-glucose (2 mg g^−1 body weight), and blood glucose was monitored over the defined time. Data represent the mean ± s.e.m. (n = 10 in each group) and statistical analysis was performed using two-way ANOVA (*p < 0.05, **p < 0.01). c HFD fed 14-week-old male mice treated with saline or chelerythrine were administered insulin (0.75 mU g^−^1 body weight), and blood glucose was monitored over the defined time. Data represent mean ± s.e.m. (n = 10 in each group) and statistical analysis was performed using two-way ANOVA (*p < 0.05). d Representative immunoblots showing insulin-induced tyrosine phosphorylation of IR-β and phosphorylation of AKT, and their corresponding total protein levels, in liver tissue lysates from 14-week-old male mice treated with saline, chelerythrine or protopine. For insulin stimulation, animals were treated with insulin (0.75 mU g^−1, i.p.) for 15 min. e Representative immunoblots showing leptin-induced tyrosine phosphorylation of JAK2 and corresponding total JAK2 levels in the hypothalamus tissue lysates from 14-week-old male mice treated with saline, chelerythrine or protopine. For leptin stimulation, animals were treated with leptin (1 mg kg^−^1, s.c.) for 15 min. All immunoblots are representative of tissue lysates generated from at least three independent animals for each condition (n = 3). Immunoblots were quantified using ImageJ software. Quantitation includes all independent data from the respective experiments and is presented as the mean ± s.e.m. d, e Statistical analysis was performed using two-way ANOVA (*p < 0.05)
Animal experiments were performed according to protocols approved by the Institutional Animal Use and Care Committee of Cold Spring Harbor laboratory. Ten week-old male C57bl6/J mice fed chow diet or high fat diet (D12492) were acclimatized for 10 days under standard conditions before experiments. Mice were intraperitoneally (i.p.) injected once daily with vehicle, 3 mg kg^−1 of chelerythrine or 3 mg kg^−1 of protopine for 30 days. Mice were killed after 6 h of fasting, and serum samples were collected to measure the metabolic parameters and tissue samples were collected for studying changes in signaling. No animals were excluded from the analysis.

[3] = insulin 0.75 mU g−1 i.p. 15 min

Row | Molecule | IC50 relative to sanguinarine (PTP1B-OX) | preference for PTP1B-OX over reduced PTP1B (PTP1B-OX) | Ki (PTP1B-OX; DiFMUP substrate) | IC50 (PTP1B-OX; wild-type PTP1B-OX, reactivation by TCEP, DiFMUP substrate, read-out: IC50 against PTP1B-OX) | effect on JAK2 phosphorylation in presence of apocynin [1] | leptin-induced tyrosine phosphorylation of JAK2 [1] | AKT phosphorylation in liver [2, 3] | IR-β phosphorylation in liver [2, 3] | phosphorylation of JAK2 in hypothalamus ([2]; leptin 1 mg kg−1 s.c. 15 min) | inhibition of reduction and reactivation (stabilization) of PTP1B-OX (PTP1B-OX)
1 | COc1ccc2c(c[n+](C)c3c4cc5c(cc4ccc23)OCO5)c1OC [chelerythrine] | fivefold lower | at least 100 fold | 5 µM | 5 µM | attenuated | dose-dependent increase | enhanced | marked increase | enhanced phosphorylation of JAK2 | –
2 | CN1CCc2cc3c(cc2C(=O)Cc2ccc4c(c2C1)OCO4)OCO3 [protopine] | – | – | – | – | – | – | – | not observed | – | did not inhibit; also recorded: ineffective; also recorded: did not stabilize
3 | B1 | – | – | – | – | abrogated | enhanced phosphorylation of JAK2 | – | – | – | impaired in a dose-dependent manner
